# Legend:
# [1] = test system: HUVEC (human umbilical vein endothelial cells); assay: MTS cytotoxicity assay, HUVEC normal cell line; type: cell-based; details: 24 h of incubation
# Protocol: (§1) LoVo, MDA-MB-231 and HUVEC human cell lines were purchased from American Type Culture Collection (ATCC). Cells were routinely maintained in culture either in culture flasks or seeded in plates, using Dulbecco’s modified Eagle medium/nutrient mixture F-12 (DMEM:F12) medium supplemented with […], 10% fetal calf serum (Sigma Aldrich, St. Louis, MO, USA), 100 units/mL penicillin, 100 μg/mL streptomycin and incubated at 37 °C in 5% CO2 humidified atmosphere.
# (§2) Cytotoxicity studies were performed in 96-well microtiter plates with flat bottoms (Falcon, Teterboro, NJ, USA) using the CellTiter 96 Aqueous One Solution Cell Proliferation Assay (Promega, Madison, WI, USA), an MTS-based colorimetric assay. Metabolically active cells have the ability to reduce MTS [3-(4,5-dimethylthiazol-2-yl)-5-(3-carboxymethoxyphenyl)-2-(4-sulfophenyl)-2H-tetrazolium, inner salt], a yellow tetrazolium salt, to a colored formazan that is soluble in the culture medium. Briefly, 15 × 10^3 cells per well were cultured in 100 µL culture medium. After 24 h, adherent cells were treated with different concentrations of the studied compounds, as well as adriamycin (Adr) and cisplatin (Cis-Pt), used as positive controls for 24 h and 48 h, respectively. Each well was then filled with 20 µL of reagent containing MTS and PES (phenazine ethosulfate, a cationic dye with excellent chemical stability that binds to MTS and produces a stable solution). The resulting formazan was determined using a Tecan GENios Spectrophotometer (Tecan US, Durham, NC, USA) by measuring the absorbance at λ = 492 nm after incubation for 4 h at 37 °C with moderate agitation every 15 min. The cytotoxicity tests were performed in triplicate, with results reported as mean values with standard deviations (SD). The cytotoxicity of DMSO was also investigated under the same conditions, and no harmful effect was found at doses less than 1%.
# (§3) Data were expressed as cell viability by comparing with untreated cells considered 100% viable, using the following formula:(1) Cell viability (%)=absorbance of treated cells−absorbance of culture medium/absorbance of untreated cells−absorbance of culture medium
# [2] = target: T1, apotransferrin (apo-Tf) (Homo sapiens, UniProt P02787); assay: Apo-Tf fluorescence quenching binding study; details: for Ka (association binding constant), Apo-Tf / n1 (Number of Binding Sites), Apo-Tf / n2 (Hill Coefficient), Apo-Tf / Kd / fa (fraction of fluorophore accessible to the quencher), Apo-Tf / Kq (bimolecular quenching constant), Apo-Tf: 298 K; for Kd: read-out: Kd (dissociation constant), Apo-Tf; for fa (fraction of fluorophore accessible to the quencher), Apo-Tf / Ksv* (Stern–Volmer quenching constant), Apo-Tf: compound 0–8 µM; for Ksv* (Stern–Volmer quenching constant), Apo-Tf: Tris-HCl pH 7.4, 298 K; for Kq (bimolecular quenching constant), Apo-Tf: from Ksv* with τ0 = 10^−8 s
# T1 construct: purchased Sigma-Aldrich Chemical Co. (Schnelldorf, Germany)
# Protocol: (§4) Using a Jasco FP 6500 spectrofluorometer (Jasco, Tokyo, Japan) and quartz cells with a 1 cm path length, the fluorescence spectra of HSA and apo-Tf were recorded in the presence and absence of the examined substances. The 2.5 mL samples containing 2.5 µM HSA or 1 µM apo-Tf were titrated by adding 5 µL of the tested substance at a time, a volume that corresponded to a 1 µM increase in concentration. The concentration range used for these experiments varied from 0 to 8 µM. The relevant spectra were collected in the emission domains of 300–500 nm (HSA) and 305–500 nm (apo-Tf) after 3 min of continuous stirring at room temperature, using excitation wavelengths of 280 nm (HSA) and 295 nm (apo-Tf).
# (§5) Experiments were conducted in a pH = 7.4 Tris-HCl buffer (5 mM Tris-HCl/50 mM NaCl for HSA and 5 mM Tris-HCl/50 mM NaCl/25 mM NaHCO3 for apo-Tf).
# (§6) The following modified Stern–Volmer equation has been used to calculate the Stern–Volmer constant, which will be denoted as KSV* in order to differentiate it from the Stern–Volmer constant calculated for the DNA binding experiments:(5) F0/F0−F=1/faKsv*[Q]+1/fa where F0 and F are the fluorescence intensities in the absence and presence of the tested compounds, fa is the fraction of fluorophore accessible to the quencher (the tested compounds), [Q] is the quencher concentration, and KSV* (M^−1) is the Stern–Volmer constant; the plot of F0/(F0 − F) against 1/[Q] yields KSV as the slope and fa as the y intercept.
# (§7) Subsequently, the bimolecular quenching rate constant was obtained by using Equation (6):(6) Ksv^*=Kqτ0
# (§8) Kq (M^−1·s^−1) is the bimolecular quenching rate constant and τ0 is the fluorophore’s lifespan in the absence of the investigated chemicals (10^−8 s). The value of Kq can be used to assess whether the quenching phenomena have an underlying static or dynamic mechanism.
# (§9) Using the following equation, the affinity constant (Ka) and the number of binding sites (n) have been calculated: (7) lgF0−F/F=lgKa+nlg[Q]
# (§10) The binding affinity, Kd, can be calculated using the quadratic function below:(8) F0−F/F0−Fb=[P]t+[Q]+Kd−([P]t+[Q]+Kd)^2−4[P]t[Q]/2[P]t where F and F0 are the fluorescence intensities of the protein in the presence and absence of the quencher, respectively, Fb is the fluorescence of a fully bound protein–quencher, [P]t is the total concentration of the protein, and [Q] is the concentration of the added quencher. Each binding isotherm was plotted against the total quencher concentration in solution as a function of bound to free protein (F/F0).
# (§11) The isotherms were then fitted using the nonlinear regression function below:(9) F/F0= F1+(F2−F1)Kdn/Kdn+[Q]^n where n represents the Hill coefficient, F1 and F2 are the horizontal and vertical asymptotes, respectively. The Kd in Equation (9) is derived from the quadratic binding function (Equation (8)).
# (§12) Data were collected in triplicate, averaged, and expressed as mean value ± standard deviation (SD). All graph fitting models were defined and built using OriginPro® 2018.
# [3] = test system: LoVo (human colorectal adenocarcinoma) cell line; assay: MTS cytotoxicity assay, LoVo cell line; type: cell-based; details: 48 h of incubation
# Protocol: as §1, §2, §3
# [4] = target: T2, human serum albumin (HSA) (Homo sapiens, UniProt P02768); assay: HSA fluorescence quenching binding study; details: for Ka (association binding constant), HSA / n1 (Number of Binding Sites), HSA / n2 (Hill Coefficient), HSA / Kd / fa (fraction of fluorophore accessible to the quencher), HSA / Ksv* (Stern–Volmer quenching constant), HSA: HSA 2.5 µM; for Ka (association binding constant), HSA / n1 (Number of Binding Sites), HSA / n2 (Hill Coefficient), HSA / Kd / fa (fraction of fluorophore accessible to the quencher), HSA / Kq (bimolecular quenching constant), HSA: 298 K; for Kd: read-out: Kd (dissociation constant), HSA; for fa (fraction of fluorophore accessible to the quencher), HSA / Ksv* (Stern–Volmer quenching constant), HSA: compound 0–8 µM; for Ksv* (Stern–Volmer quenching constant), HSA: Tris-HCl pH 7.4, 298 K; for Kq (bimolecular quenching constant), HSA: from Ksv* with τ0 = 10^−8 s
# T2 construct: purchased Sigma-Aldrich Chemical Co. (Schnelldorf, Germany)
# Protocol: as §4, §5, §6, §7, §8, §9, §10, §11, §12
# [5] = test system: EB–DNA system (CT-DNA); assay: Competitive binding assay with ethidium bromide (EB) through fluorescence spectroscopy; set-up: species or system calf; details: EB 2 µM, CT-DNA 10 µM, compound 0–40 µM
# Protocol: The fluorescence spectra were recorded using 1.6 mL samples containing 10 µM CT-DNA, 2 µM EB, and increasing amounts (0–40 µM with an increment of 5 µM) of tested compounds; the samples were prepared by keeping the components in contact for 10 min at room temperature, under continuous stirring and in the dark. The excitation wavelength was 500 nm, and the spectra were recorded between the wavelengths of 520 and 800 nm. A Jasco FP 6500 fluorometer and quartz cells with a 1 cm route length were employed. The classical Stern–Volmer equation (Equation (3)) was used to interpret the obtained data:(3) F0/F=1+KSV·[Q] F0 and F are the fluorescence intensities of the EB–DNA samples in the absence and presence of the tested compounds, respectively; KSV is the Stern–Volmer constant, which was computed as the slope from the plot of F0/F vs. [Q], where [Q] is the chemical concentration.
# The binding ratio was plotted against the logarithm of the concentration in comparison with a control sample exposed solely to DMSO. (4) y=A1+(A2−A1)×x^n/K50^n+x^n
# For fitting data points, the modified Hill function with offset (Origin®) was used: where y represents the binding ratio (F/F0), x represents the concentration, A1 represents the minimum of y values, A2 represents the maximum of y values, K50 represents the concentration corresponding to 50% binding or the half maximum binding constant, and n represents the Hill coefficient.
# T2 sequence (P02768 25-609): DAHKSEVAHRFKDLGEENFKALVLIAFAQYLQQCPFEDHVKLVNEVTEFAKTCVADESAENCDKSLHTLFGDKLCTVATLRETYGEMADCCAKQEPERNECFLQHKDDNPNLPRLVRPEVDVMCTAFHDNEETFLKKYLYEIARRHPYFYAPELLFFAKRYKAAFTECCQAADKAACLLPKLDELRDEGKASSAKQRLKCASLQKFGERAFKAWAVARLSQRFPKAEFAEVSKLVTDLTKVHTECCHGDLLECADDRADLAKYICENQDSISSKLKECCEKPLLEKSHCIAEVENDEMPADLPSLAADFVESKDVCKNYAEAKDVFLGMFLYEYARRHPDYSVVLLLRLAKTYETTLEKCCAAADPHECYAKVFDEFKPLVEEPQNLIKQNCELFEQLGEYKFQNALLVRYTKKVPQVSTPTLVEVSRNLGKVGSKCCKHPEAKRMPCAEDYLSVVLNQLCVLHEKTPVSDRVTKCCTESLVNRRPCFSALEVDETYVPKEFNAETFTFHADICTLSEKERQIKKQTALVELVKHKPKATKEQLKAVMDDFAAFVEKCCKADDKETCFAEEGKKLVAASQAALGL
# T1 sequence (P02787 20-698): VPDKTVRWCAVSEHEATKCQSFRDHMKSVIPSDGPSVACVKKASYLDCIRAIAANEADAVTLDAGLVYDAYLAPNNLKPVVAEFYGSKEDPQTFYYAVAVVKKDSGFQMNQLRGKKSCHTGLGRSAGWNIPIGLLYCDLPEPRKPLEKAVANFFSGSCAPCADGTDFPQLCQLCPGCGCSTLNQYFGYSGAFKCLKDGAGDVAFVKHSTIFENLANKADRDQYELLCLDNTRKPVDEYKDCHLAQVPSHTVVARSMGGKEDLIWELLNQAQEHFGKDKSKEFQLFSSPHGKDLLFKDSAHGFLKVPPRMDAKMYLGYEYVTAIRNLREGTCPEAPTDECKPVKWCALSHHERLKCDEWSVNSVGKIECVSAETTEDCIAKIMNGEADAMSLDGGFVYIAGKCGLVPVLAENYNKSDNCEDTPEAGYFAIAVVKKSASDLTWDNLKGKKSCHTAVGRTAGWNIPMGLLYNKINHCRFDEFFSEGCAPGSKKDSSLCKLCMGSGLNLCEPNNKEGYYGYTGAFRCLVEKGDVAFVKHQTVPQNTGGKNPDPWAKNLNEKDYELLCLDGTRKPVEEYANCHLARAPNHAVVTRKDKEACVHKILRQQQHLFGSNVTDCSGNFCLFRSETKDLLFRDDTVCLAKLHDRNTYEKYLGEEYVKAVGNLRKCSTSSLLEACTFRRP
Compound,IC50 [1] [µM],"Ka (association binding constant), Apo-Tf ([2]; apo-Tf 1 µM)","n1 (Number of Binding Sites), Apo-Tf ([2]; apo-Tf 1 µM)","n2 (Hill Coefficient), Apo-Tf ([2]; apo-Tf 1 µM)",Kd ([2]; apo-Tf 1 µM) [µM],"fa (fraction of fluorophore accessible to the quencher), Apo-Tf ([2]; apo-Tf 1 µM)","Ksv* (Stern–Volmer quenching constant), Apo-Tf ([2]; apo-Tf 1 µM)","quenching effect on apo-Tf fluorescence peak ([2]; apo-Tf 1 µM, compound up to 8 µM) [%]","Kq (bimolecular quenching constant), Apo-Tf [2] [M⁻¹ s⁻¹]",IC50 [3] [µM],"Ka (association binding constant), HSA [4]","n1 (Number of Binding Sites), HSA [4]","n2 (Hill Coefficient), HSA [4]",Kd [4] [µM],"fa (fraction of fluorophore accessible to the quencher), HSA [4]","Ksv* (Stern–Volmer quenching constant), HSA [4]","Kq (bimolecular quenching constant), HSA [4] [M⁻¹ s⁻¹]",EB Displacement Assay K50 (half maximum binding constant) [5] [µM],"KSV, Stern–Volmer quenching constant (EB–DNA) [5]",IC50 (μM) LoVo [3]
"CCn1cc(C(=O)[O-])c(=O)c2ccc(C)nc21.CCn1cc(C(=O)[O-])c(=O)c2ccc(C)nc21.CCn1cc(C(=O)[O-])c(=O)c2ccc(C)nc21.O.O.O.O.O.O.O.O.[La+3] [La(nal)3, La(C12H11N2O3)3(H2O)2·6H2O]",149 ± 17.9,(1.51 ± 0.72) × 10^4 M^−1,0.86 ± 0.04,1.04 ± 0.19,8.64 ± 2.22,0.80 ± 0.06,(1.04 ± 0.13) × 10^5 M^−1,31,1.04e+13,49.8 ± 7.92,(27.48 ± 2.10) × 10^5 M^−1,1.16 ± 0.00,1.18 ± 0.08,2.91 ± 0.07,1.12 ± 0.01,(2.75 ± 0.10) × 10^5 M^−1,2.75e+13,36.45 ± 16.53,2.48 ± 0.44 M^−1 (×10^3),–
"CCn1cc(C(=O)[O-])c(=O)c2ccc(C)nc21.CCn1cc(C(=O)[O-])c(=O)c2ccc(C)nc21.O.O.O.O.[Gd+3].[OH-] [Gd(nal)2, Gd(C12H11N2O3)2(OH)(H2O)·3H2O]",> 200,(3.46 ± 1.34) × 10^4 M^−1,0.94 ± 0.03,1.20 ± 0.40,8.87 ± 6.2,0.92 ± 0.07,(0.78 ± 0.09) × 10^5 M^−1,–,7.8e+12,> 200,(15.52 ± 2.93) × 10^5 M^−1,1.15 ± 0.01,1.20 ± 0.23,4.79 ± 0.84,1.25 ± 0.03,(1.51 ± 0.07) × 10^5 M^−1,1.51e+13,34.11 ± 8.90,10.47 ± 0.13 M^−1 (×10^3),not toxic
